Activity calls are given as the source filed them. How the calls were made is not given here.
System: CCRIS mutagenicity, Ames/micronucleus/aberration tests
Test: CCRIS mutagenicity studies
[1] = End Point: IN VITRO CHROMOSOMAL ABERRATIONS, Test System: CHO CELLS, Metabolic Activation: NONE
[2] = Test System: AMES SALMONELLA TYPHIMURIUM, Strain/Indicator: TA98, Metabolic Activation: NONE, Method: PREINCUBATION
[3] = Test System: AMES SALMONELLA TYPHIMURIUM, Strain/Indicator: TA100, Metabolic Activation: NONE, Method: PREINCUBATION

`C[C@](N)(Cc1ccc(O)c(O)c1)C(=O)O` was tested, and the mutagenic call [1] was “inactive; negative”, the mutagenic call (End Point: IN VITRO CHROMOSOMAL ABERRATIONS, Test System: CHO CELLS, Metabolic Activation: RAT, LIVER, S-9, AROCLOR 1254) was “inactive; negative; testing limited by solubility of the chemical” and the mutagenic call (Test System: AMES SALMONELLA TYPHIMURIUM, Strain/Indicator: TA97, Metabolic Activation: HAMSTER, LIVER, S-9, AROCLOR 1254 (10 OR 30%), Method: PREINCUBATION) was “inactive; negative”. For the same molecule, the mutagenic call (Test System: AMES SALMONELLA TYPHIMURIUM, Strain/Indicator: TA97, Metabolic Activation: HAMSTER, LIVER, S-9, AROCLOR 1254, Method: PREINCUBATION) was “inactive; negative”, the mutagenic call (Test System: AMES SALMONELLA TYPHIMURIUM, Strain/Indicator: TA97, Metabolic Activation: NONE, Method: PREINCUBATION) was “inactive; negative” and the mutagenic call (Test System: AMES SALMONELLA TYPHIMURIUM, Strain/Indicator: TA97, Metabolic Activation: RAT, LIVER, S-9, AROCLOR 1254 (10 OR 30%), Method: PREINCUBATION) was “inactive; negative”. The mutagenic call (Test System: AMES SALMONELLA TYPHIMURIUM, Strain/Indicator: TA97, Metabolic Activation: RAT, LIVER, S-9, AROCLOR 1254, Method: PREINCUBATION) was “inactive; negative”, the mutagenic call (Test System: AMES SALMONELLA TYPHIMURIUM, Strain/Indicator: TA98, Metabolic Activation: HAMSTER, LIVER, S-9, AROCLOR 1254 (10%), Method: PREINCUBATION) was “inactive; negative” and the mutagenic call (Test System: AMES SALMONELLA TYPHIMURIUM, Strain/Indicator: TA98, Metabolic Activation: HAMSTER, LIVER, S-9, AROCLOR 1254 (30%), Method: PREINCUBATION) was “inactive; negative”. The mutagenic call (Test System: AMES SALMONELLA TYPHIMURIUM, Strain/Indicator: TA98, Metabolic Activation: HAMSTER, LIVER, S-9, AROCLOR 1254, Method: PREINCUBATION) was “inactive; negative”, the mutagenic call [2] was “inactive; negative” and the mutagenic call (Test System: AMES SALMONELLA TYPHIMURIUM, Strain/Indicator: TA98, Metabolic Activation: RAT, LIVER, S-9, AROCLOR 1254 (10%), Method: PREINCUBATION) was “inactive; negative”. The mutagenic call (Test System: AMES SALMONELLA TYPHIMURIUM, Strain/Indicator: TA98, Metabolic Activation: RAT, LIVER, S-9, AROCLOR 1254 (30%), Method: PREINCUBATION) was “inactive; negative”, the mutagenic call (Test System: AMES SALMONELLA TYPHIMURIUM, Strain/Indicator: TA98, Metabolic Activation: RAT, LIVER, S-9, AROCLOR 1254, Method: PREINCUBATION) was “inactive; negative” and the mutagenic call (Test System: AMES SALMONELLA TYPHIMURIUM, Strain/Indicator: TA100, Metabolic Activation: HAMSTER, LIVER, S-9, AROCLOR 1254 (10%), Method: PREINCUBATION) was “inactive; negative”. For the same molecule, the mutagenic call (Test System: AMES SALMONELLA TYPHIMURIUM, Strain/Indicator: TA100, Metabolic Activation: HAMSTER, LIVER, S-9, AROCLOR 1254 (30%), Method: PREINCUBATION) was “inactive; negative”, the mutagenic call (Test System: AMES SALMONELLA TYPHIMURIUM, Strain/Indicator: TA100, Metabolic Activation: HAMSTER, LIVER, S-9, AROCLOR 1254, Method: PREINCUBATION) was “inactive; negative” and the mutagenic call [3] was “inactive; negative”. For the same molecule, the mutagenic call (Test System: AMES SALMONELLA TYPHIMURIUM, Strain/Indicator: TA100, Metabolic Activation: RAT, LIVER, S-9, AROCLOR 1254 (10%), Method: PREINCUBATION) was “inactive; negative”, the mutagenic call (Test System: AMES SALMONELLA TYPHIMURIUM, Strain/Indicator: TA100, Metabolic Activation: RAT, LIVER, S-9, AROCLOR 1254 (30%), Method: PREINCUBATION) was “inactive; negative” and the mutagenic call (Test System: AMES SALMONELLA TYPHIMURIUM, Strain/Indicator: TA100, Metabolic Activation: RAT, LIVER, S-9, AROCLOR 1254, Method: PREINCUBATION) was “inactive; negative”. The mutagenic call (Test System: AMES SALMONELLA TYPHIMURIUM, Strain/Indicator: TA1535, Metabolic Activation: HAMSTER, LIVER, S-9, AROCLOR 1254 (10%), Method: PREINCUBATION) was “inactive; negative”, the mutagenic call (Test System: AMES SALMONELLA TYPHIMURIUM, Strain/Indicator: TA1535, Metabolic Activation: HAMSTER, LIVER, S-9, AROCLOR 1254 (30%), Method: PREINCUBATION) was “inactive; negative” and the mutagenic call (Test System: AMES SALMONELLA TYPHIMURIUM, Strain/Indicator: TA1535, Metabolic Activation: HAMSTER, LIVER, S-9, AROCLOR 1254, Method: PREINCUBATION) was “inactive; negative”. For the same molecule, the mutagenic call (Test System: AMES SALMONELLA TYPHIMURIUM, Strain/Indicator: TA1535, Metabolic Activation: NONE, Method: PREINCUBATION) was “inactive; negative”, the mutagenic call (Test System: AMES SALMONELLA TYPHIMURIUM, Strain/Indicator: TA1535, Metabolic Activation: RAT, LIVER, S-9, AROCLOR 1254 (10%), Method: PREINCUBATION) was “inactive; negative” and the mutagenic call (Test System: AMES SALMONELLA TYPHIMURIUM, Strain/Indicator: TA1535, Metabolic Activation: RAT, LIVER, S-9, AROCLOR 1254 (30%), Method: PREINCUBATION) was “inactive; negative”. The mutagenic call (Test System: AMES SALMONELLA TYPHIMURIUM, Strain/Indicator: TA1535, Metabolic Activation: RAT, LIVER, S-9, AROCLOR 1254, Method: PREINCUBATION) was “inactive; negative”.

In the case of `Cc1cc(O)c2c(c1)C(=O)c1cccc(O)c1C2=O`, the mutagenic call (End Point: IN VITRO CHROMOSOMAL ABERRATIONS, Test System: CHO CELLS, Metabolic Activation: MALE WISTAR RAT, LIVER, S-9) is reported as “inactive; negative; tested to limit of solubility”, the mutagenic call [1] is reported as “inactive; negative; tested to limit of solubility” and the mutagenic call [2] is reported as “inactive; negative”. The mutagenic call (Test System: AMES SALMONELLA TYPHIMURIUM, Strain/Indicator: TA98, Metabolic Activation: NONE, Method: STANDARD PLATE) was “inactive; negative”, the mutagenic call (Test System: AMES SALMONELLA TYPHIMURIUM, Strain/Indicator: TA98, Metabolic Activation: RAT, LIVER, S-9, AROCLOR 1254, Method: STANDARD PLATE) was “inactive; negative” and the mutagenic call (Test System: AMES SALMONELLA TYPHIMURIUM, Strain/Indicator: TA98, Metabolic Activation: RAT, LIVER, S-9, PCB, Method: PREINCUBATION) was “inactive; negative”. For the same molecule, the mutagenic call [3] was “inactive; negative”, the mutagenic call (Test System: AMES SALMONELLA TYPHIMURIUM, Strain/Indicator: TA100, Metabolic Activation: NONE, Method: STANDARD PLATE) was “inactive; negative” and the mutagenic call (Test System: AMES SALMONELLA TYPHIMURIUM, Strain/Indicator: TA100, Metabolic Activation: RAT, LIVER, S-9, AROCLOR 1254, Method: STANDARD PLATE) was “inactive; negative”. The mutagenic call (Test System: AMES SALMONELLA TYPHIMURIUM, Strain/Indicator: TA100, Metabolic Activation: RAT, LIVER, S-9, PCB, Method: PREINCUBATION) was “inactive; negative”, the mutagenic call (Test System: AMES SALMONELLA TYPHIMURIUM, Strain/Indicator: TA102, Metabolic Activation: NONE, Method: PREINCUBATION) was “active; positive” and the mutagenic call (Test System: AMES SALMONELLA TYPHIMURIUM, Strain/Indicator: TA102, Metabolic Activation: RAT, LIVER, S-9, Method: PREINCUBATION) was “active; positive”. For the same molecule, the mutagenic call (Test System: AMES SALMONELLA TYPHIMURIUM, Strain/Indicator: TA1535, Metabolic Activation: NONE, Method: STANDARD PLATE) was “inactive; negative”, the mutagenic call (Test System: AMES SALMONELLA TYPHIMURIUM, Strain/Indicator: TA1535, Metabolic Activation: RAT, LIVER, S-9, AROCLOR 1254, Method: STANDARD PLATE) was “inactive; negative” and the mutagenic call (Test System: AMES SALMONELLA TYPHIMURIUM, Strain/Indicator: TA1537, Metabolic Activation: RAT, LIVER, S-9, AROCLOR 1254, Method: STANDARD PLATE) was “active; positive”. For the same molecule, the mutagenic call (Test System: AMES SALMONELLA TYPHIMURIUM, Strain/Indicator: TA1537, Metabolic Activation: RAT, LIVER, S-9, Method: PREINCUBATION) was “active; positive”, the mutagenic call (Test System: AMES SALMONELLA TYPHIMURIUM, Strain/Indicator: TA1538, Metabolic Activation: NONE, Method: STANDARD PLATE) was “inactive; negative” and the mutagenic call (Test System: AMES SALMONELLA TYPHIMURIUM, Strain/Indicator: TA1538, Metabolic Activation: RAT, LIVER, S-9, AROCLOR 1254, Method: STANDARD PLATE) was “inactive; negative”.

With `O=c1c(O)c2c(c3c1ccc1[nH]c4c(ccc5ccccc54)cc13)O2` the mutagenic call (Test System: AMES SALMONELLA TYPHIMURIUM, Strain/Indicator: TA98, Metabolic Activation: RAT, LIVER, AROCLOR 1254, NADPH GENERATING SYSTEM, Method: STANDARD PLATE) was “inactive; negative”, the mutagenic call (Test System: AMES SALMONELLA TYPHIMURIUM, Strain/Indicator: TA100, Metabolic Activation: RAT, LIVER, AROCLOR 1254, NADPH GENERATING SYSTEM, Method: STANDARD PLATE) was “inactive; negative” and the mutagenic call (Test System: CHINESE HAMSTER V-79, Strain/Indicator: V-79/8-AZAGUANINE, Method: STANDARD PLATE) was “inactive; negative”.

For `CCCCN=[N+]=[N-]`, the mutagenic call (Test System: Ames Salmonella typhimurium, Strain/Indicator: TA100, Metabolic Activation: None, Method: Preincubation) was “inactive; negative” and the mutagenic call (Test System: Ames Salmonella typhimurium, Strain/Indicator: TA100, Metabolic Activation: Rat, Liver, S-9, Aroclor 1254, Method: Preincubation) was “active; positive”.

From PubChem BioAssay AID1259407 (Chemical Carcinogenesis Research Information System (CCRIS), 2018)
